Assay results reported in ChEMBL document CHEMBL3885861, “Open TG-GATES”.

Organism: Rattus norvegicus
Test: Open TG-GATES - Regimen: Daily Repeat
Type: toxicity, organism-based, Sprague-Dawley
Parameters: regimen Daily Repeat, gender Male, age 6 weeks
Conditions: in vivo, po, 200 mg/kg, route gavage, dose level High; for APTT / Bas / Eos / Fbg / Hb / Ht / Lym / MCH / MCHC / MCV / Mono / Neu / PT / Plat / RBC / Ret / WBC: tissue Blood
[1] = 72 h, tissue Kidney, time 3 day
[2] = 72 h, tissue Plasma, time 3 day

Question: With `Cn1c(=O)c2[nH]cnc2n(C)c1=O.O` [THEOPHYLLINE] as the compound, how does the TERMINAL_BW (72 h, time 3 day) read?
Answer: The TERMINAL_BW was 221.1 g.

Question: And the APTT (72 h, time 3 day)?
Answer: The APTT was 22.1 s.

Question: What about the Bas (72 h, time 3 day) of the same compound?
Answer: The Bas was 0%.

Question: What about the Eos (72 h, time 3 day) of the same compound?
Answer: The Eos was 0.5%.

Question: What about the Fbg (72 h, time 3 day) of the same compound?
Answer: The Fbg was 438.5 mg/dL.

Question: What about the Hb (72 h, time 3 day) of the same compound?
Answer: The Hb was 15 g/dL.

Question: What about the Ht (72 h, time 3 day) of the same compound?
Answer: The Ht was 44.8%.

Question: What about the Lym (72 h, time 3 day) of the same compound?
Answer: Its Lym is 77.8%.

Question: And the MCH (72 h, time 3 day)?
Answer: The MCH was 21.1 pg.

Question: What about the MCHC (72 h, time 3 day) of the same compound?
Answer: Its MCHC is 33.5%.

Question: What about the MCV (72 h, time 3 day) of the same compound?
Answer: The MCV was 63 fL.

Question: And the Mono (72 h, time 3 day)?
Answer: The Mono was 3.8%.

Question: And the Neu (72 h, time 3 day)?
Answer: The Neu was 15.8%.

Question: And the PT (72 h, time 3 day)?
Answer: The PT was 16.7 s.

Question: What about the Plat (72 h, time 3 day) of the same compound?
Answer: Its Plat is 134.2 x10_4/uL.

Question: And the RBC (72 h, time 3 day)?
Answer: Its RBC is 711.5 x10_4/ul.

Question: And the Ret (72 h, time 3 day)?
Answer: The Ret was 6.6%.

Question: What about the WBC (72 h, time 3 day) of the same compound?
Answer: The WBC was 107.4 x10_2/uL.

Question: And the KIDNEY_L [1]?
Answer: Its KIDNEY_L is 0.9 g.

Question: What about the KIDNEY_R [1] of the same compound?
Answer: Its KIDNEY_R is 0.9 g.

Question: And the KIDNEY_TOTAL [1]?
Answer: The KIDNEY_TOTAL was 1.9 g.

Question: And the LIVER (72 h, tissue Liver, time 3 day)?
Answer: The LIVER was 9.5 g.

Question: What about the A/G [2] of the same compound?
Answer: Its A/G is 1.2.

Question: And the ALP [2]?
Answer: Its ALP is 1278.8 IU/L.

Question: What about the ALT [2] of the same compound?
Answer: The ALT was 42.5 IU/L.

Question: And the AST [2]?
Answer: The AST was 73.2 IU/L.

Question: And the BUN [2]?
Answer: Its BUN is 15.2 mg/dL.

Question: And the CRE [2]?
Answer: Its CRE is 0.2 mg/dL.

Question: What about the Ca [2] of the same compound?
Answer: Its Ca is 10.9 mg/dL.

Question: And the Cl [2]?
Answer: The Cl was 106.8 meq/L.

Question: What about the DBIL [2] of the same compound?
Answer: The DBIL was 0 mg/dL.

Question: What about the GLC [2] of the same compound?
Answer: The GLC was 178.8 mg/dL.

Question: What about the IP [2] of the same compound?
Answer: Its IP is 7.3 mg/dL.

Question: And the K [2]?
Answer: The K was 4.3 meq/L.

Question: And the LDH [2]?
Answer: Its LDH is 198.8 IU/L.

Question: What about the Na [2] of the same compound?
Answer: The Na was 141.8 meq/L.

Question: What about the PL [2] of the same compound?
Answer: The PL was 122.8 mg/dL.

Question: What about the RALB [2] of the same compound?
Answer: Its RALB is 3.1 g/dL.

Question: What about the TBIL [2] of the same compound?
Answer: The TBIL was 0.0075 mg/dL.

Question: What about the TC [2] of the same compound?
Answer: Its TC is 75 mg/dL.

Question: And the TG [2]?
Answer: Its TG is 37.8 mg/dL.

Question: What about the TP [2] of the same compound?
Answer: Its TP is 5.7 g/dL.

Question: And the gamma-GTP [2]?
Answer: Its gamma-GTP is 1.5 IU/L.

Question: What about the TERMINAL_BW ([…], time 7 day) of the same compound?
Answer: The TERMINAL_BW was 254.4 g.

Question: What about the TERMINAL_BW ([…], time 14 day) of the same compound?
Answer: Its TERMINAL_BW is 288.8 g.

Question: And the TERMINAL_BW ([…], time 28 day)?
Answer: The TERMINAL_BW was 371.8 g.

Question: And the APTT ([…], time 7 day)?
Answer: Its APTT is 23 s.

Question: And the Bas ([…], time 7 day)?
Answer: Its Bas is 0%.

Question: And the Eos ([…], time 7 day)?
Answer: The Eos was 0.2%.

Question: What about the Fbg ([…], time 7 day) of the same compound?
Answer: Its Fbg is 354 mg/dL.

Question: And the Hb ([…], time 7 day)?
Answer: Its Hb is 14.6 g/dL.

Question: What about the Ht ([…], time 7 day) of the same compound?
Answer: Its Ht is 43%.

Question: What about the Lym ([…], time 7 day) of the same compound?
Answer: The Lym was 67.4%.

Question: What about the MCH ([…], time 7 day) of the same compound?
Answer: Its MCH is 20.2 pg.

Question: And the MCHC ([…], time 7 day)?
Answer: The MCHC was 33.9%.

Question: And the MCV ([…], time 7 day)?
Answer: The MCV was 59.7 fL.

Question: What about the Mono ([…], time 7 day) of the same compound?
Answer: Its Mono is 4.6%.

Question: And the Neu ([…], time 7 day)?
Answer: Its Neu is 26%.

Question: What about the PT ([…], time 7 day) of the same compound?
Answer: The PT was 16.7 s.

Question: And the Plat ([…], time 7 day)?
Answer: Its Plat is 117.7 x10_4/uL.

Question: What about the RBC ([…], time 7 day) of the same compound?
Answer: Its RBC is 720.6 x10_4/ul.

Question: What about the Ret ([…], time 7 day) of the same compound?
Answer: The Ret was 6%.

Question: And the WBC ([…], time 7 day)?
Answer: Its WBC is 116.9 x10_2/uL.

Question: What about the APTT ([…], time 14 day) of the same compound?
Answer: Its APTT is 24.8 s.

Question: What about the Bas ([…], time 14 day) of the same compound?
Answer: Its Bas is 0%.

Question: And the Eos ([…], time 14 day)?
Answer: The Eos was 0.2%.

Question: And the Fbg ([…], time 14 day)?
Answer: The Fbg was 337 mg/dL.

Question: And the Hb ([…], time 14 day)?
Answer: Its Hb is 15.5 g/dL.

Question: And the Ht ([…], time 14 day)?
Answer: Its Ht is 45.7%.

Question: And the Lym ([…], time 14 day)?
Answer: The Lym was 77%.

Question: What about the MCH ([…], time 14 day) of the same compound?
Answer: The MCH was 20.1 pg.

Question: And the MCHC ([…], time 14 day)?
Answer: The MCHC was 33.8%.

Question: And the MCV ([…], time 14 day)?
Answer: Its MCV is 59.5 fL.

Question: What about the Mono ([…], time 14 day) of the same compound?
Answer: Its Mono is 3.2%.

Question: And the Neu ([…], time 14 day)?
Answer: The Neu was 18.2%.

Question: What about the PT ([…], time 14 day) of the same compound?
Answer: The PT was 16.1 s.

Question: What about the Plat ([…], time 14 day) of the same compound?
Answer: The Plat was 102.3 x10_4/uL.

Question: What about the RBC ([…], time 14 day) of the same compound?
Answer: The RBC was 767.8 x10_4/ul.

Question: And the Ret ([…], time 14 day)?
Answer: Its Ret is 4.7%.

Question: And the WBC ([…], time 14 day)?
Answer: Its WBC is 128.3 x10_2/uL.

Question: What about the APTT ([…], time 28 day) of the same compound?
Answer: Its APTT is 27.4 s.

Question: And the Bas ([…], time 28 day)?
Answer: Its Bas is 0%.

Question: And the Eos ([…], time 28 day)?
Answer: Its Eos is 1%.

Question: And the Fbg ([…], time 28 day)?
Answer: Its Fbg is 349 mg/dL.

Question: What about the Hb ([…], time 28 day) of the same compound?
Answer: Its Hb is 16.1 g/dL.

Question: What about the Ht ([…], time 28 day) of the same compound?
Answer: The Ht was 46.7%.
